{
  "source": "patent US20240350495A1",
  "about": "“[6R]-MTHF IN B6 ENHANCED 5-FU BASED CHEMOTHERAPY OF CARCINOMA” (Isofol Medical AB, priority 2023, published 2024)",
  "key": {"[1]": {"tested_on": "human colon carcinoma HCT116 cell line", "details": "supplemented with high concentrations of PLP and leucovorin; cited from earlier work"}, "[2]": {"tested_on": "murine leukemia L1210 cell line", "details": "supplemented with high concentrations of PLP and leucovorin; cited from earlier work"}, "[3]": {"tested_on": "human colon carcinoma HT29 cell line", "details": "supplemented with high concentrations of PLP and leucovorin; cited from earlier work"}, "[4]": {"experiment": "[6R]-MTHF levels after arfolitixorin versus comparable leucovorin treatment", "format": "in vivo", "excerpt": "This dependency on cellular activation provides a hurdle for reaching sufficient levels of the active [6R]-MTHF. […] Secondly, the enzymatic activation is genetically regulated^16,18, and is therefore associated with variability between individuals and conditions. Arfolitoxirin is believed to be efficacious in a larger proportion of patients with less inter- and intra-individual variability. These differences may potentially turn out to be of significant importance for increased clinical efficacy in 5-FU based cancer treatment."}, "[5]": {"tested_on": "solid tumors", "experiment": "Phase I/IIa study ISO-CC-005 of arfolitixorin with 5-FU", "format": "in vivo, human", "details": "between 8 and 16 weeks after initiating treatment", "procedure": "Arfolitixorin has been in development for a number of years and has been studied in several clinical studies.\nThe completion of the study was announced in January 2020. In total, 105 patients were included in the study. […] These patients had been treated with the “doublet” regimens comprising 120 mg/m^2 arfolitixorin and 5-fluorouracil (5-FU) with either irinotecan or oxaliplatin (ARFIRI/ARFOX). Out of the 31 patients, 17 were treated with an ARFOX regimen."}, "[6]": {"details": "air, sunlight; cited from earlier work"}, "[7]": {"details": "cited from earlier work"}, "[8]": {"experiment": "Stability of the drug substance salt", "format": "physicochemical", "details": "compared with very unstable [6R]-5,10-MTHF", "excerpt": "Arfolitixorin (former Modufolin®) is a folate-based biomodulator developed by applicant to improve the outcome of a range of antimetabolite treatments used within oncology. One of the therapeutic areas of specific interest included in the development program of arfolitixorin is as biomodulator of 5-fluorouracil (5-FU) activity in standard treatment regime for advanced, metastatic CRC, such as Stage IV. A stable lyophilizate formulation of the naturally occurring diastereoisomeric folate [6R]-5,10-MTHF has successfully been made from the drug substance arfolitixorin hemisulfate. […] As mentioned in the background section of the present application, [6R]-5,10-methylenetetrahydrofolate, abbreviated herein as [6R]-5,10-MTHF, needs to be metabolically formed when using the widely used folate-based drugs leucovorin and levoleucovorin."}, "[9]": {"details": "kidneys; cited from earlier work"}, "[10]": {"details": "in vitro; cited from earlier work"}},
  "note": "“Also recorded” adds a separate entry of the source.",
  "data": [
    {"smiles": "O=c1[nH]cc(F)c(=O)[nH]1", "note": "[5-FU, 5-fluorouracil]", "values": [
      {"measurement": "cytotoxic activity of 5-FU", "setting": "[1]", "value": "potentiated; also recorded: strongly potentiated"},
      {"measurement": "cytotoxic activity of 5-FU", "setting": "[2]", "value": "potentiated; also recorded: strongly potentiated"},
      {"measurement": "cytotoxic activity of 5-FU", "setting": "[3]", "value": "potentiated; also recorded: strongly potentiated"}
    ]},
    {"smiles": "Nc1nc2c(c(=O)[nH]1)N1CN(c3ccc(C(=O)N[C@@H](CCC(=O)O)C(=O)O)cc3)C[C@H]1CN2", "note": "[Arfolitixorin, [6R]-5,10-methylenetetrahydrofolate]", "values": [
      {"measurement": "[6R]-MTHF levels relative to comparable treatment with leucovorin", "setting": "[4]", "value": "3-4 times"},
      {"measurement": "progression of solid tumors", "setting": "[5]", "value": "No statistically significant progression"}
    ]},
    {"smiles": "Cc1ncc(CO)c(CO)c1O.Cl", "note": "[Pyridoxine hydrochloride]", "values": [
      {"measurement": "stability", "setting": "[6]", "value": "stable in air and is slowly affected by sunlight"},
      {"measurement": "solubility in water", "setting": "[7]", "value": "One gram dissolves in 5 ml of water"}
    ]},
    {"smiles": "Nc1nc2c(c(=O)[nH]1)N1CN(c3ccc(C(=O)N[C@@H](CCC(=O)O)C(=O)O)cc3)C[C@H]1CN2.Nc1nc2c(c(=O)[nH]1)N1CN(c3ccc(C(=O)N[C@@H](CCC(=O)O)C(=O)O)cc3)C[C@H]1CN2.O=S(=O)(O)O", "note": "[arfolitixorin hemisulfate]", "values": [
      {"measurement": "stability of the salt", "setting": "[8]", "value": "unexpectedly stable salt"}
    ]},
    {"smiles": "Nc1nc2c(c(=O)[nH]1)N(C=O)[C@H](CNc1ccc(C(=O)N[C@@H](CCC(=O)O)C(=O)O)cc1)CN2", "note": "[d-LV]", "values": [
      {"measurement": "excretion", "setting": "[9]", "value": "slowly excreted by the kidneys"}
    ]},
    {"smiles": "Nc1nc(=O)c2c([nH]1)NC[C@H](CNc1ccc(C(=O)N[C@@H](CCC(=O)O)C(=O)O)cc1)N2C=O", "note": "[l-LV]", "values": [
      {"measurement": "conversion to methyl-tetrahydrofolate", "setting": "[10]", "value": "rapidly converted to the biologically available methyl-tetrahydrofolate form"}
    ]}
  ]
}
